Target: Arabidopsis thaliana SHMT
Test: SHMT activity assay (ED50 SHMT), coupled with N5,N10-CH2-THF dehydrogenase, NADH at 340 nm
Format: biochemical
Conditions: Table 2; values given as upper bounds
Method in brief: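 His-tagged SHMT purified on Ni-NTA. NADH formation followed at 340 nm for 30 min; ED50 from inhibition of initial velocity.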

Row | EC50 | Compound
1 | < 0.1 µM | CCOC(=O)COc1cc(Cl)cc(C2(C3CCC3)C(C#N)=C(N)Oc3[nH]nc(C)c32)c1 (centres unmarked) [Compound 2.480]
2 | < 0.01 µM | Cc1n[nH]c2c1C(c1cc(Cl)cc(Oc3ccc(O)cc3[N+](=O)[O-])c1)(C1CCC1)C(C#N)=C(N)O2 (centres unmarked) [Compound 2.481]
3 | < 0.01 µM | Cc1n[nH]c2c1C(c1cc(Cl)cc(-c3cccc(C(=O)O)c3)c1)(C1CCC1)C(C#N)=C(N)O2 (centres unmarked) [Compound 2.482]
4 | < 0.01 µM | Cc1n[nH]c2c1C(c1cc(Cl)cc(-c3ccc(C(=O)O)cc3)c1)(C1CCC1)C(C#N)=C(N)O2 (centres unmarked) [Compound 2.483]
5 | < 0.01 µM | Cc1n[nH]c2c1C(c1cc(C#N)cc(-c3cc(F)c(O)c(F)c3)c1)(C1CCC1)C(C#N)=C(N)O2 (centres unmarked) [Compound 2.484]
6 | < 0.01 µM | Cc1n[nH]c2c1C(c1ccc(O)c(Cl)c1)(C1CCC1)C(C#N)=C(N)O2 (centres unmarked) [Compound 2.485]
7 | < 0.01 µM | COc1c(Cl)cc(C2(C3CCC3)C(C#N)=C(N)Oc3[nH]nc(C)c32)cc1C#N (centres unmarked) [Compound 2.487]
8 | < 0.01 µM | Cc1n[nH]c2c1C(c1cc(Cl)cc(N3CCOCC3)c1)(C1CCC1)C(C#N)=C(N)O2 (centres unmarked) [Compound 2.488]
9 | < 0.01 µM | Cc1n[nH]c2c1C(c1cc(Cl)cc(NS(=O)(=O)c3ccccc3)c1)(C1CCC1)C(C#N)=C(N)O2 (centres unmarked) [Compound 2.490]
10 | < 0.01 µM | COc1c(C#N)cc(C2(C3CCC3)C(C#N)=C(N)Oc3[nH]nc(C)c32)cc1C(F)(F)F (centres unmarked) [Compound 2.491]
11 | < 0.01 µM | COc1c(Br)cc(C2(C3CCC3)C(C#N)=C(N)Oc3[nH]nc(C)c32)cc1C#N (centres unmarked) [Compound 2.492]
12 | < 0.01 µM | Cc1n[nH]c2c1C(c1cc(Cl)cc(-c3ccc(-c4nnn[nH]4)cc3)c1)(C1CCC1)C(C#N)=C(N)O2 (centres unmarked) [Compound 2.493]
13 | < 0.1 µM | Cc1n[nH]c2c1C(c1cccc(-c3cccc(C(=O)O)c3)c1)(C1CCC1)C(C#N)=C(N)O2 (centres unmarked) [Compound 2.494]
14 | < 0.01 µM | Cc1n[nH]c2c1C(c1cccc(-c3ccc(C(=O)O)cc3)c1)(C1CCC1)C(C#N)=C(N)O2 (centres unmarked) [Compound 2.495]

More lines, now with the values behind:

Row | Compound | EC50
15 | Cc1n[nH]c2c1C(c1cc(C#N)cc(-c3cccc(C(=O)O)c3)c1)(C1CCC1)C(C#N)=C(N)O2 (centres unmarked) [Compound 2.461] | < 0.01 µM
16 | COc1c(F)cc(-c2cc(C#N)cc(C3(C4CCC4)C(C#N)=C(N)Oc4[nH]nc(C)c43)c2)cc1F (centres unmarked) [Compound 2.463] | < 0.01 µM
17 | COc1ccc(C2(C3CCC3)C(C#N)=C(N)Oc3[nH]nc(C)c32)cc1C#N (centres unmarked) [Compound 2.464] | < 0.01 µM
18 | N#CC1=C(N)Oc2[nH]nc(CO)c2C1(c1cc(C(F)(F)F)cc(C(F)(F)F)c1)C1(F)CC1 (centres unmarked) [Compound 2.465] | < 0.1 µM
19 | CCC1(c2ccc(C)c(Br)c2)C(C#N)=C(N)Oc2[nH]nc(C)c21 (centres unmarked) [Compound 2.466] | < 0.1 µM
20 | CCC1(c2cc(Cl)cc(Br)c2)C(C#N)=C(N)Oc2[nH]nc(C)c21 (centres unmarked) [Compound 2.468] | < 0.01 µM
21 | CCC1(c2cc(C)cc(Br)c2)C(C#N)=C(N)Oc2[nH]nc(C)c21 (centres unmarked) [Compound 2.469] | < 0.01 µM
22 | Cc1n[nH]c2c1C(c1cc(C#N)cc(OCC#N)c1)(C1CCC1)C(C#N)=C(N)O2 (centres unmarked) [Compound 2.471] | < 0.01 µM
23 | CCC1(c2ccc(Br)c(Cl)c2)C(C#N)=C(N)Oc2[nH]nc(C)c21 (centres unmarked) [Compound 2.472] | < 0.1 µM
24 | CCC1(c2cc(Br)c(C)c(Br)c2)C(C#N)=C(N)Oc2[nH]nc(C)c21 (centres unmarked) [Compound 2.473] | < 0.01 µM
25 | Cc1n[nH]c2c1C(c1cc(OCc3nnn[nH]3)cc(C(F)(F)F)c1)(C1CCC1)C(C#N)=C(N)O2 (centres unmarked) [Compound 2.474] | < 0.01 µM
26 | Cc1n[nH]c2c1C(c1cc(C#N)cc(OCc3nnn[nH]3)c1)(C1CCC1)C(C#N)=C(N)O2 (centres unmarked) [Compound 2.475] | < 0.01 µM
27 | COCOc1cc(C(F)(F)F)cc(C2(C3CCC3)C(C#N)=C(N)Oc3[nH]nc(C)c32)c1 (centres unmarked) [Compound 2.476] | < 0.01 µM
28 | COCOc1cc(C#N)cc(C2(C3CCC3)C(C#N)=C(N)Oc3[nH]nc(C)c32)c1 (centres unmarked) [Compound 2.477] | < 0.01 µM
29 | CCOC(=O)COc1cc(Br)cc(C2(C3(F)CC3)C(C#N)=C(N)Oc3[nH]nc(C)c32)c1 (centres unmarked) [Compound 2.479] | < 0.1 µM

From patent US9480259B2, “Pyrazolopyrans having herbicidal and pharmaceutical properties” (BASF SE, priority 2012, dated 2016)
